Here are results for 9 compounds from US5908846A (priority 1993, dated 1999).

The nature of series [1]: Apparent partition coefficient (P) between octanol and pH 7.4 aqueous buffer at 21° C. To be noted: octanol / phosphate buffer. How it is done:
(§1) The experimental methods used for these determinations are described below.
The concentration of the compounds in the aqueous phase before and after partitioning was determined by HPLC analysis, and the partition coefficients determined.

The conditions of series [2]: pH 7.
The next series in a line: physchem. How it is done: as §1
The mixtures were placed in an ultrasonic bath for 10 min and then rotated on a mechanical spindle for 24 h and filtered. After rotation for 1 h the pH of the phosphate buffer mixtures was adjusted to 7.0. An aliquot of the filtrates was diluted with water or acetonitrile and analyzed by HPLC.

A further series in a line: in vitro. The settings on record: human.
Series [3] can be described thus: In vitro skin permeation (diffusion) study, open Franz diffusion cells, whole abdominal human skin. The settings on record: for Flux, IPM: steady state, IPM solution not saturated, human skin.
Where [4] appears, read: isopropyl myristate, organic solvent or mixture.
Where [5] appears, read: phosphate buffer, pH 7, aqueous buffer.

Values after ≈ are worked out from the molar mass of the structure shown.

As for `CCC(=O)Oc1ccc2c3c1O[C@H]1[C@@H](OC(=O)CC)C=C[C@H]4[C@@H](C2)N(C)CC[C@@]341` [3,6-Dipropionyl-morphine, 3,6-dipropionyl morphine], the logD (commonly lipophilicity at a set pH, counting ionised and neutral species) in series [1] was 1.66. The “Flux, Buffer” value in series [2] is given as 2.5 ± 0.5 μg/cm^2 /h. The solubility (as a rule, how much of the substance goes into solution per volume) at 24 h was determined as 41 mg/mL (≈ 103 mM) in “physchem” (setting [4]) and 3.6 mg/mL (≈ 9.06 mM) in the series “physchem” (setting [5]). The Papp (usually the rate of passage across a membrane or cell layer, normalised by area and donor concentration) in the series “in vitro” (pH 7) is 0.278 ×10⁻⁶ cm/s. Further, the “Amount penetrated present in the receptor phase as the 6-monoester” value in series [3] (receptor phase composition after human skin permeation) is recorded as approximately 50%.

`CCCCCC(=O)Oc1ccc2c3c1O[C@H]1[C@@H](OC(=O)CCCCC)C=C[C@H]4[C@@H](C2)N(C)CC[C@@]341` [3,6-Dihexanoyl-morphine, 3,6-dihexanoyl morphine]: the logD in series [1] is more than 4. Moreover, the “Flux, Buffer” value in series [2] is 1.7 ± 0.2 μg/cm^2 /h. Moreover, the solubility at 24 h in “physchem” (setting [4]) is more than 200 mg/mL; in “physchem” (setting [5]) it was 0.02 mg/mL (≈ 0.0415 mM). The results for the Papp in “in vitro” and in the series “in vitro” (pH 7) were more than 0.0444 ×10⁻⁶ cm/s and 38.9 ×10⁻⁶ cm/s, respectively. In series [3] (200 mg/ml), the “Flux, IPM” value is on record as 11.7 ± 1.2 μg/cm^2 /h.

Consider `CC(=O)Oc1ccc2c3c1O[C@H]1[C@@H](O)C=C[C@H]4[C@@H](C2)N(C)CC[C@@]341` [3-Acetyl-morphine], for which the “Flux, IPM” value in series [3] (200 mg/ml) is reported as 11.4 ± 1.8 μg/cm^2 /h.

For `CCC(=O)Oc1ccc2c3c1O[C@H]1[C@@H](O)C=C[C@H]4[C@@H](C2)N(C)CC[C@@]341` [3-Propionyl-morphine, 3-propionyl morphine], the logD in series [1] was 0.66. For the same compound, the solubility at 24 h in “physchem” (setting [4]) turned out to be 79 mg/mL (≈ 231 mM); in “physchem” (setting [5]) it was 21 mg/mL (≈ 61.5 mM).

Take `CCCCCC(=O)Oc1ccc2c3c1O[C@H]1[C@@H](O)C=C[C@H]4[C@@H](C2)N(C)CC[C@@]341` [3-Hexanoyl-morphine, 3-hexanoyl morphine]: the logD in series [1] came out at 2.04. Moreover, the “Flux, Buffer” value in series [2] worked out at 25.3 ± 4.2 μg/cm^2 /h. The solubility at 24 h is more than 150 mg/mL in the series “physchem” (setting [4]) and 2.6 mg/mL (≈ 6.78 mM) in “physchem” (setting [5]). Further, the values for the apparent permeability coefficient (Papp) in the series “in vitro” and in the series “in vitro” (pH 7) were more than 0.0667 ×10⁻⁶ cm/s and 3.61 ×10⁻⁶ cm/s, respectively. In series [3] (125 mg/ml), the “Flux, IPM” value was 35.6 ± 12.0 μg/cm^2 /h.

Consider `CC(C)C(=O)Oc1ccc2c3c1O[C@H]1[C@@H](OC(=O)C(C)C)C=C[C@H]4[C@@H](C2)N(C)CC[C@@]341` [3,6-Diisobutyryl-morphine, 3,6-diisobutyryl morphine], for which, in series [1], the log distribution coefficient (logD) amounted to 2.6. Besides, the figures for the solubility at 24 h in the series “physchem” (setting [4]) and in “physchem” (setting [5]) were 80 mg/mL (≈ 188 mM) and 0.6 mg/mL (≈ 1.41 mM), respectively.

As to `CCCCC(=O)Oc1ccc2c3c1O[C@H]1[C@@H](O)C=C[C@H]4[C@@H](C2)N(C)CC[C@@]341` [3-Valeryl-morphine], the “Flux, IPM” value in series [3] (200 mg/ml) is 16.5 ± 2.7 μg/cm^2 /h.

Regarding 3-Butoxy-morphlne, the “Flux, IPM” value in series [3] (200 mg/ml) was 8.3 ± 2.2 μg/cm^2 /h.

Consider `CC(C)C(=O)Oc1ccc2c3c1O[C@H]1[C@@H](O)C=C[C@H]4[C@@H](C2)N(C)CC[C@@]341` [3-Isobutyryl-morphine], for which the “Flux, IPM” value in series [3] (200 mg/ml) was determined as 27.0 ± 3.3 μg/cm^2 /h.
